Data published in ChEMBL document CHEMBL5291721, “A preclinical secondary pharmacology resource illuminates target-adverse drug reaction associations of marketed drugs” (Nat Commun, 2023).

Experiments:
[1] = target: Adenosine receptor A2a (Homo sapiens, UniProt P29274)
[2] = target: T1, Alpha-1A adrenergic receptor (Homo sapiens, UniProt P35348); assay type: functional, cell-based
T1 sequence (P35348 whole entry): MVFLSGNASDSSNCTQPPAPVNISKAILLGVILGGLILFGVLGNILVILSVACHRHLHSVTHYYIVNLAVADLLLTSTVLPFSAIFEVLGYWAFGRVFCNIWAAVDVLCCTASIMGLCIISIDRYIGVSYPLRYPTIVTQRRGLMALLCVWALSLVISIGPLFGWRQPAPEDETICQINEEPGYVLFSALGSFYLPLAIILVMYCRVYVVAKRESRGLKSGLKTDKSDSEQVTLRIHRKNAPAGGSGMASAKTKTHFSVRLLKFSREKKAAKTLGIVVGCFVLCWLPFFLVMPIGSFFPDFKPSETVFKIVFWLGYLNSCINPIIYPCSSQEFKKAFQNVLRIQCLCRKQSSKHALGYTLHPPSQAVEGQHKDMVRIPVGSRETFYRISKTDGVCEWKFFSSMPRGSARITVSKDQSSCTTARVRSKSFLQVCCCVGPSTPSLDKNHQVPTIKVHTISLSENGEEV

[3] = target: T2, Alpha-2A adrenergic receptor (Homo sapiens, UniProt P08913); assay type: functional, cell-based
T2 sequence (P08913 whole entry): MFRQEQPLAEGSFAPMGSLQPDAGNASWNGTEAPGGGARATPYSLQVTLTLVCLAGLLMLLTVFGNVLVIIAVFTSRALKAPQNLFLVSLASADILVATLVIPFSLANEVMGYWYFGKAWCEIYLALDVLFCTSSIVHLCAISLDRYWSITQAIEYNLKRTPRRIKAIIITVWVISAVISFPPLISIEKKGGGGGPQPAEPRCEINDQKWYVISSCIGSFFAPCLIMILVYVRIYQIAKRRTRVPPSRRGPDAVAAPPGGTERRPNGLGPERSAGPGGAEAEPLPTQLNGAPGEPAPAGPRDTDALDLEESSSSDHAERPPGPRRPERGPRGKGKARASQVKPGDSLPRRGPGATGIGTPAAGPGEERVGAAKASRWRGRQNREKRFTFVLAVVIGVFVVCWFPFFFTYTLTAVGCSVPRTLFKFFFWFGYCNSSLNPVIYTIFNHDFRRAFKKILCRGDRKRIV

[4] = target: T2, Alpha-2A adrenergic receptor; assay type: functional, cell-based; remark: listed apart in the source
[5] = target: T3, Alpha-2C adrenergic receptor (Homo sapiens, UniProt P18825); assay type: functional
T3 sequence (P18825 whole entry): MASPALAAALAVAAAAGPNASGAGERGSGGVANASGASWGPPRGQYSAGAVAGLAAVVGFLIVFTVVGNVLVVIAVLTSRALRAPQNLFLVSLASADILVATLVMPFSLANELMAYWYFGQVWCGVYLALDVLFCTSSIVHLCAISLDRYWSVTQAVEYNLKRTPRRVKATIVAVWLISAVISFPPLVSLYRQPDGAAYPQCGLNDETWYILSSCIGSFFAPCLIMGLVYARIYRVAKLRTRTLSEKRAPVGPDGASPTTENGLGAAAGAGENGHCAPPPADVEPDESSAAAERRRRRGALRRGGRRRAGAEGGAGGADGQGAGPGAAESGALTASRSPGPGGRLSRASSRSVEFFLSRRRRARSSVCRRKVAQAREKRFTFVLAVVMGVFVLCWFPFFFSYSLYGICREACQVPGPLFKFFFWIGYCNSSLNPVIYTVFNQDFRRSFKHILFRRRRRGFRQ

[6] = target: Beta-1 adrenergic receptor (Homo sapiens, UniProt P08588); assay type: functional
Beta-1 adrenergic receptor, sequence (P08588 whole entry): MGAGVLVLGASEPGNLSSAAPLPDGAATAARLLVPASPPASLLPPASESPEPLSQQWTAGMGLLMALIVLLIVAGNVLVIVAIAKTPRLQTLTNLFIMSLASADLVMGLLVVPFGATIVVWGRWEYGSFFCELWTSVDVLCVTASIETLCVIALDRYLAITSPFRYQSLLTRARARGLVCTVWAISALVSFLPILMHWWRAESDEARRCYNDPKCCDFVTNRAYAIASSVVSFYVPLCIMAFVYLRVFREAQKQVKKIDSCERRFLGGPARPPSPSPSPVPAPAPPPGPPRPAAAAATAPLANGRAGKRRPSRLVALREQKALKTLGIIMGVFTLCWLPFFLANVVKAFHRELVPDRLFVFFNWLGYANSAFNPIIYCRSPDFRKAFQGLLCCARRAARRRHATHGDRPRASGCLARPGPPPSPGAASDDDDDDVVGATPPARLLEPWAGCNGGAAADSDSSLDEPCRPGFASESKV

[7] = target: T4, B2 bradykinin receptor (Homo sapiens, UniProt P30411)
T4 sequence (P30411 whole entry): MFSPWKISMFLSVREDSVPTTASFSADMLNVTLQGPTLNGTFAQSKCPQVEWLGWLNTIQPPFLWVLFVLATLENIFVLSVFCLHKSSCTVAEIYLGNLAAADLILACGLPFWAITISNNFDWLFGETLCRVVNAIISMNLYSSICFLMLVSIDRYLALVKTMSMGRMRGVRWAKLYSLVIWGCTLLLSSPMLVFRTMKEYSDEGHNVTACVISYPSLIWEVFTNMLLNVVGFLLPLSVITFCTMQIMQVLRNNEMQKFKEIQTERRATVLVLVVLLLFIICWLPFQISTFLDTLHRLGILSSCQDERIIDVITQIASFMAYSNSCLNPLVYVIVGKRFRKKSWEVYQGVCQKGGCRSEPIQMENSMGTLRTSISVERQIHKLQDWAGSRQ

[8] = target: Muscarinic acetylcholine receptor M3 (Homo sapiens, UniProt P20309)
Muscarinic acetylcholine receptor M3, sequence (P20309 whole entry): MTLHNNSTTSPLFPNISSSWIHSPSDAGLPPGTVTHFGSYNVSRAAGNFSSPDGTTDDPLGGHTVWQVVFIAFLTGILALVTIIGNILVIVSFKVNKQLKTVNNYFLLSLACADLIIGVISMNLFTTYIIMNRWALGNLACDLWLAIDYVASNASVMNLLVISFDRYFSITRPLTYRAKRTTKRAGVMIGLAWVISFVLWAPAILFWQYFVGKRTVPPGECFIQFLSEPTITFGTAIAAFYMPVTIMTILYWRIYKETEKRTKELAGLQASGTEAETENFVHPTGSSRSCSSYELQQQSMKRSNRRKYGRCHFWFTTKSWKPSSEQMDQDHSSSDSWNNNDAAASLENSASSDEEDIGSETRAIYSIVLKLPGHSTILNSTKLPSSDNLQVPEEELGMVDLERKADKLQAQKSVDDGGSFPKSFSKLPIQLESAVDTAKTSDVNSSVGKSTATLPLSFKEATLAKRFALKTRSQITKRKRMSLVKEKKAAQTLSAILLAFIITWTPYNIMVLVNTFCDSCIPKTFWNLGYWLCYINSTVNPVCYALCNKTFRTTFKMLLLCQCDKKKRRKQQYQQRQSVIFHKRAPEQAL

[9] = target: Neuronal acetylcholine receptor subunit alpha-4 (Homo sapiens, UniProt P43681)
Neuronal acetylcholine receptor subunit alpha-4, sequence (P43681 whole entry): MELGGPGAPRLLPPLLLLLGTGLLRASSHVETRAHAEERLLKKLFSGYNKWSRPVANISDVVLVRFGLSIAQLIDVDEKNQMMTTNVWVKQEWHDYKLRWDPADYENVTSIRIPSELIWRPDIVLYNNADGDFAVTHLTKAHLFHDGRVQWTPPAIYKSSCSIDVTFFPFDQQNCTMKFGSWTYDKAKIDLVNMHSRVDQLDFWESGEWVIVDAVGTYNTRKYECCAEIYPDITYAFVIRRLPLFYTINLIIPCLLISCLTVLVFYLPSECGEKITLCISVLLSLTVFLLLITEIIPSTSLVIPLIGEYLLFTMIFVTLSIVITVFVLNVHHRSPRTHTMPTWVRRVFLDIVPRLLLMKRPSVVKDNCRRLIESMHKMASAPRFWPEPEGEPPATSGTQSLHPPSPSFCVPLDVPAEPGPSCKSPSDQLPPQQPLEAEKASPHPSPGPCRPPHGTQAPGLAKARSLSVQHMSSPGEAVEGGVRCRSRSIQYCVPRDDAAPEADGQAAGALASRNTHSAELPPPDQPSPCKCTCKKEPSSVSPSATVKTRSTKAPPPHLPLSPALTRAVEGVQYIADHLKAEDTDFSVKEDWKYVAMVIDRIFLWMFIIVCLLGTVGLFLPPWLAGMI

[10] = target: D(1A) dopamine receptor (Homo sapiens, UniProt P21728); assay type: functional, cell-based
D(1A) dopamine receptor, sequence (P21728 whole entry): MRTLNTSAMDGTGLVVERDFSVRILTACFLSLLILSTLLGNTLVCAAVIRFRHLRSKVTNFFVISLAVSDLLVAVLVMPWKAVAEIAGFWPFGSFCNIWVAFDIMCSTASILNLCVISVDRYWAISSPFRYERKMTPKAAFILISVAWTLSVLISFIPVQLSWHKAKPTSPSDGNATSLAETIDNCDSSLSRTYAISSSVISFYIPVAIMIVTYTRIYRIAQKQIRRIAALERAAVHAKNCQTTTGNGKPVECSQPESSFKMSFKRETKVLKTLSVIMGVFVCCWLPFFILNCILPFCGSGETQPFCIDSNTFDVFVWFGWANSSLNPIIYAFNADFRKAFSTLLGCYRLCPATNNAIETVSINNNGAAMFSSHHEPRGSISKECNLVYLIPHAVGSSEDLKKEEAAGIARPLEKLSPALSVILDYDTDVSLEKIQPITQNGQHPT

[11] = target: T5, Endothelin-1 receptor (Homo sapiens, UniProt P25101)
T5 sequence (P25101 whole entry): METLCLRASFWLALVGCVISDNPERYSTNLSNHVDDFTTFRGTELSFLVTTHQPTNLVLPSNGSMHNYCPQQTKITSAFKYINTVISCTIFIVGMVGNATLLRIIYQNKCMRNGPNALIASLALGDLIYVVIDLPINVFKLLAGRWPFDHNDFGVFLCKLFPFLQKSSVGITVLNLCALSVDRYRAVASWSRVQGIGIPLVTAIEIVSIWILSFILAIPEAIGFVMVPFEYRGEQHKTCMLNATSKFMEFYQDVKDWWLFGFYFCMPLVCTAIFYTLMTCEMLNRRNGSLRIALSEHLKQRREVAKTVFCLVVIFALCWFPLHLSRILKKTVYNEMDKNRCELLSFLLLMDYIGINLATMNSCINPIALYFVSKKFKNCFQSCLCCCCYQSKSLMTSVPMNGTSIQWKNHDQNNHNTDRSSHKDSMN

[12] = target: Gamma-aminobutyric acid receptor subunit alpha-1 (Rattus norvegicus, UniProt P62813); assay type: functional
Gamma-aminobutyric acid receptor subunit alpha-1, sequence (P62813 whole entry): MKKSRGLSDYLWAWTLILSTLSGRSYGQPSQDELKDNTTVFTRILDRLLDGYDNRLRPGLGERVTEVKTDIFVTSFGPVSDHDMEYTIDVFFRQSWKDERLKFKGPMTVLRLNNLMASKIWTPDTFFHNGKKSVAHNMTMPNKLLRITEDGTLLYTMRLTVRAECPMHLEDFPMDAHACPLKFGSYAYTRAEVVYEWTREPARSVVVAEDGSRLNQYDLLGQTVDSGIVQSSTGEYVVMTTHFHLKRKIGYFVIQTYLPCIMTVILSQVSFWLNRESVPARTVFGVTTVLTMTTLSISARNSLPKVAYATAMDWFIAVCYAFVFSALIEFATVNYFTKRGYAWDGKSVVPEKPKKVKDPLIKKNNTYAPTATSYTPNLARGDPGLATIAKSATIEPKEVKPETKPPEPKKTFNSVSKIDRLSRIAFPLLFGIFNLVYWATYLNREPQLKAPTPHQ

[13] = target: T6, 5-hydroxytryptamine receptor 2A (Homo sapiens, UniProt P28223); assay type: functional, cell-based
T6 sequence (P28223 whole entry): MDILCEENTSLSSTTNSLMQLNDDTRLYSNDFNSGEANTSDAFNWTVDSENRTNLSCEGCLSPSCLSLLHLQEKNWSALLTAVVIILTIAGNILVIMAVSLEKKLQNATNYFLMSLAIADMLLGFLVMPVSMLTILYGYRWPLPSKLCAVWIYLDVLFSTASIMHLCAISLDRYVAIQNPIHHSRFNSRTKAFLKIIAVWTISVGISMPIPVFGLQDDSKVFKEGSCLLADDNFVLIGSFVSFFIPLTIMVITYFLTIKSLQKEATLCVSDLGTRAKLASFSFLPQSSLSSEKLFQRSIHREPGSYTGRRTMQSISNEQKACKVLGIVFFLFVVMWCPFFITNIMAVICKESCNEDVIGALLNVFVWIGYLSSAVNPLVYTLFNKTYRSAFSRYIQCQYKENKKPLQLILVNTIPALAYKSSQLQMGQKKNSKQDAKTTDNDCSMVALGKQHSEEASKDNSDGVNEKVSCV

[14] = target: T6, 5-hydroxytryptamine receptor 2A; assay type: functional, cell-based; remark: listed apart in the source
[15] = target: 5-hydroxytryptamine receptor 2B (Homo sapiens, UniProt P41595); assay type: functional, cell-based
5-hydroxytryptamine receptor 2B, sequence (P41595 whole entry): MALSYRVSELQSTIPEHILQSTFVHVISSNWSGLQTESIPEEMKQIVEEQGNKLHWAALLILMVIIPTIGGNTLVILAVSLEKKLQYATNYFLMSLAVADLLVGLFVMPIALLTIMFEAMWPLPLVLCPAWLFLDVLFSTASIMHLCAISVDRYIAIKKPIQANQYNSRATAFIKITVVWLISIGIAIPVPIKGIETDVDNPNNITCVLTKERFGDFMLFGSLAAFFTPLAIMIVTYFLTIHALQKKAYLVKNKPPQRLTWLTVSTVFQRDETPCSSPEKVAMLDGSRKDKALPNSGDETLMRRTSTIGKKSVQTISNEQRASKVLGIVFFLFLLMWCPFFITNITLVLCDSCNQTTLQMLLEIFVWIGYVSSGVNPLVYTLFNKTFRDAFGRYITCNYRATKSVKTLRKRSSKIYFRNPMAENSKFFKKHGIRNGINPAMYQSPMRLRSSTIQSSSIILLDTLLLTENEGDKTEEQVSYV
Also: assay procedure not described here.

Adenosine receptor A2a, sequence (P29274 whole entry): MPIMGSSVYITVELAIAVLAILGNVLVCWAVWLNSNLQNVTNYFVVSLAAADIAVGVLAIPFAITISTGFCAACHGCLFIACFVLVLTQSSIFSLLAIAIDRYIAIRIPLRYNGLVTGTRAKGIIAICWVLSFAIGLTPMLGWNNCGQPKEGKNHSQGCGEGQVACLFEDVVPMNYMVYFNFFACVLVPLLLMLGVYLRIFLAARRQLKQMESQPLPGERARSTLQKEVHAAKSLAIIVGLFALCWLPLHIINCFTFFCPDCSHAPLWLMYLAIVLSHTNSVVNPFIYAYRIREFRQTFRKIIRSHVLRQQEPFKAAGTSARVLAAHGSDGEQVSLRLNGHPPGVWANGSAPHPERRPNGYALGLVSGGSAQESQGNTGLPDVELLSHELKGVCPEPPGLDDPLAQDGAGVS

| SMILES | AC50 [1] [µM] | AC50 [2] [µM] | AC50 [3] [µM] | AC50 [4] [µM] | AC50 [5] [µM] | AC50 [6] [µM] | AC50 [7] [µM] | AC50 [8] [µM] | AC50 [9] [µM] | AC50 [10] [µM] | AC50 [11] [µM] | AC50 [12] [µM] | AC50 [13] [µM] | AC50 [14] [µM] | AC50 [15] [µM] |
| --- | --- | --- | --- | --- | --- | --- | --- | --- | --- | --- | --- | --- | --- | --- | --- |
| Oc1cc(O)c(Cl)cn1 | > 30 | > 30 | > 30 | > 30 | > 30 | > 30 | > 30 | > 30 | > 30 | > 30 | > 30 | > 30 | > 30 | > 30 | > 30 |
| CC(C)N(CCCCOCC(=O)O)c1cnc(-c2ccccc2)c(-c2ccccc2)n1 | > 30 | > 30 | > 30 | > 30 | > 30 | > 30 | > 10 | > 30 | > 30 | 7.3 | > 30 | > 30 | > 30 | > 30 | > 30 |
| C[N+]12CCC(CC1)C(OC(=O)C(O)(c1ccccc1)c1ccccc1)C2 (stereo not given) | > 30 | > 30 | > 30 | > 30 | > 30 | > 30 | > 30 | 0.0019 | > 30 | > 30 | > 30 | > 30 | > 30 | > 30 | > 30 |
| Clc1ccc(CCC(Cn2ccnc2)Sc2c(Cl)cccc2Cl)cc1 (stereo not given) [BUTOCONAZOLE] | > 30 | > 30 | > 30 | > 30 | > 30 | > 30 | > 30 | 21 | > 30 | > 30 | > 30 | > 30 | > 30 | > 30 | > 30 |
| CO/N=C(\C(=O)N[C@@H]1C(=O)N2C(C(=O)O)=C(CSc3nc(=O)c(=O)[nH]n3C)CS[C@H]12)c1csc(N)n1 [CEFTRIAXONE] | > 30 | > 30 | > 30 | > 30 | > 30 | > 30 | > 30 | > 30 | > 30 | > 30 | > 30 | > 30 | > 30 | > 30 | > 30 |
| Oc1ccc(CCNCCCCCCNCCc2ccccc2)cc1O [DOPEXAMINE] | > 30 | > 30 | > 30 | > 30 | 1.2 | > 30 | > 30 | > 30 | > 30 | 23 | > 30 | > 30 | > 30 | > 30 | > 30 |
